≈ marks a conversion by molar mass, not a printed value.

In the experiment the test system is Staphylococcus aureus (Isolate ID ATCC 29213). In words: Bacterial assay: MIC by broth microdilution or agar dilution (CLSI), S. aureus ATCC 29213. Type of experiment: cell-based. As to conditions: Staphylococcus aureus, ATCC29213, read-out: S. aureus MIC (μg/mL) Activity Range, S. aureus (ATCC29213). The procedure:
Compounds are tested for antimicrobial activity by susceptibility testing in liquid or on solid media. Minimum inhibitory concentrations (MICs) for compounds against each strain are determined by the broth microdilution or agar dilution method according to the guidelines of the Clinical Laboratories and Standards Institute, formerly the National Committee for Clinical Laboratory Standards (Clinical Laboratories and Standards Institute. Methods for Dilution Antimicrobial Susceptibility Tests for Bacteria That Grow Aerobically; Approved Standard—Seventh Edition. Document M7-A7. CLSI, Wayne, Pa., 2006; Clinical Laboratories and Standards Institute). The bacterial strains tested include S. aureus (Staphylococcus aureus (Isolate ID ATCC 29213)) and an FtsZ mutant of this isolate (FtsZ-G196A Staphylococcus aureus (Isolate ID GG/190723/sa/1.2)). Compound MICs were determined to be in the following activity ranges “A” activity≦0.25 μg/mL; “B” activity>0.25 μg/mL-1.0 μg/mL; “C” activity>1.0 μg/mL-16 μg/mL; “D” activity>16 μg/mL and ND=not determined. The bracketed entries indicate entantiomer(s) and their activity.
As for `CC(Oc1ccc(F)c(C(N)=O)c1F)c1nc(-c2cnc(C(F)(F)F)nc2)c(Cl)o1` (centres unmarked) [Compound 55], the MIC is 1 to 16 µg/mL (≈ 2.23 to 35.7 µM).

Consider `CCOC(=O)CCC(=O)OCC(Oc1ccc(F)c(C(N)=O)c1F)c1nc(-c2ccc(C(F)(F)F)cc2)c(Cl)o1` (centres unmarked) [Compound 56, 2-(3-carbamoyl-2,4-difluorophenoxy)-2-(5-chloro-4-(4-(trifluoromethyl)phenyl)oxazol-2-yl)ethyl ethyl succinate], for which the MIC lay in the range of 0.25 to 1 µg/mL.

Consider `CN(C)CC(=O)OCC(Oc1ccc(F)c(C(N)=O)c1F)c1nc(-c2ccc(C(F)(F)F)cc2)c(Br)o1` (centres unmarked) [Compound 57, 2-(5-bromo-4-(4-(trifluoromethyl)phenyl)oxazol-2-yl)-2-(3-carbamoyl-2,4-difluorophenoxy)ethyl 2-(dimethylamino)acetate], for which the MIC was in the range of 0.25 to 1 µg/mL (≈ 0.422 to 1.69 µM). Turning to `CN(CC(=O)OCC(Oc1ccc(F)c(C(N)=O)c1F)c1nc(-c2ccc(Cl)cc2)c(Cl)o1)C(=O)OC(C)(C)C` (centres unmarked) [Compound 58, 2-(3-carbamoyl-2,4-difluorophenoxy)-2-(5-chloro-4-(4-chlorophenyl)oxazol-2-yl)ethyl 2-((tert-butoxycarbonyl)(methyl)amino)acetate], the MIC is 1 to 16 µg/mL (≈ 1.67 to 26.6 µM). Turning to `CNCC(=O)OCC(Oc1ccc(F)c(C(N)=O)c1F)c1nc(-c2ccc(Cl)cc2)c(Cl)o1` (centres unmarked) [Compound 59, 2-(3-carbamoyl-2,4-difluorophenoxy)-2-(5-chloro-4-(4-chlorophenyl)oxazol-2-yl)ethyl 2-(methylamino)acetate], the MIC was 0.25 to 1 µg/mL (≈ 0.5 to 2 µM).

`NC(=O)c1c(F)ccc(OC(COC(=O)CN2C(=O)c3ccccc3C2=O)c2nc(-c3ccc(C(F)(F)F)cc3)c(Br)o2)c1F` (centres unmarked) [Compound 60, 2-(5-bromo-4-(4-(trifluoromethyl)phenyl)oxazol-2-yl)-2-(3-carbamoyl-2,4-difluorophenoxy)ethyl 2-(1,3-dioxoisoindolin-2-yl)acetate]: the MIC was in the range of 0.25 to 1 µg/mL (≈ 0.36 to 1.44 µM). On to `CN(CC(=O)OCC(Oc1ccc(F)c(C(N)=O)c1F)c1nc(-c2ccc(C(F)(F)F)cc2)c(Br)o1)C(=O)OC(C)(C)C` (centres unmarked) [Compound 61, 2-(5-bromo-4-(4-(trifluoromethyl)phenyl)oxazol-2-yl)-2-(3-carbamoyl-2,4-difluorophenoxy)ethyl 2-((tert-butoxycarbonyl)(methyl)amino)acetate], for which the MIC lay within 0.25 to 1 µg/mL (≈ 0.369 to 1.47 µM).

With `CNCC(=O)OCC(Oc1ccc(F)c(C(N)=O)c1F)c1nc(-c2ccc(C(F)(F)F)cc2)c(Br)o1` (centres unmarked) [Compound 62, 2-(5-bromo-4-(4-(trifluoromethyl)phenyl)oxazol-2-yl)-2-(3-carbamoyl-2,4-difluorophenoxy)ethyl 2-(methylamino)acetate], the MIC was in the range of 0.25 to 1 µg/mL (≈ 0.432 to 1.73 µM). Under `C=CCc1oc(C(COC(C)=O)Oc2ccc(F)c(C(N)=O)c2F)nc1-c1ccc(C(F)(F)F)cc1` (centres unmarked) [Compound 63, 2-(5-allyl-4-(4-(trifluoromethyl)phenyl)oxazol-2-yl)-2-(3-carbamoyl-2,4-difluorophenoxy)ethyl acetate] stands 1 to 16 µg/mL; under `NC(=O)c1c(F)ccc(OC(COC(=O)CCN2C(=O)c3ccccc3C2=O)c2nc(-c3ccc(C(F)(F)F)cc3)c(Br)o2)c1F` (centres unmarked) [Compound 64, 2-(5-bromo-4-(4-(trifluoromethyl)phenyl)oxazol-2-yl)-2-(3-carbamoyl-2,4-difluorophenoxy)ethyl 3-(1,3-dioxoisoindolin-2-yl)propanoate], under 0.25 µg/mL. As for `CCCc1oc(C(COC(C)=O)Oc2ccc(F)c(C(N)=O)c2F)nc1-c1ccc(C(F)(F)F)cc1` (centres unmarked) [Compound 65, 2-(3-carbamoyl-2,4-difluorophenoxy)-2-(5-propyl-4-(4-(trifluoromethyl)phenyl)oxazol-2-yl)ethyl acetate], the MIC was 1 to 16 µg/mL. `C=CCc1oc(C(CO)Oc2ccc(F)c(C(N)=O)c2F)nc1-c1ccc(C(F)(F)F)cc1` (centres unmarked) [Compound 66, 3-(1-(5-allyl-4-(4-(trifluoromethyl)phenyl)oxazol-2-yl)-2-hydroxyethoxy)-2,6-difluorobenzamide]: the MIC was 1 to 16 µg/mL (≈ 2.14 to 34.2 µM). For the compound `CCCc1oc(C(CO)Oc2ccc(F)c(C(N)=O)c2F)nc1-c1ccc(C(F)(F)F)cc1` (centres unmarked) [Compound 67, 2,6-difluoro-3-(2-hydroxy-1-(5-propyl-4-(4-(trifluoromethyl)phenyl)oxazol-2-yl)ethoxy)benzamide], the MIC lay within 1 to 16 µg/mL (≈ 2.13 to 34 µM).

For the compound `NC(=O)c1c(F)ccc(OC(COC(=O)Cn2cccc2)c2nc(-c3ccc(C(F)(F)F)cc3)c(Br)o2)c1F` (centres unmarked) [Compound 68, 2-(5-bromo-4-(4-(trifluoromethyl)phenyl)oxazol-2-yl)-2-(3-carbamoyl-2,4-difluorophenoxy)ethyl 2-(1H-pyrrol-1-yl)acetate], the MIC is under 0.25 µg/mL.

`NC(=O)c1c(F)ccc(OC(COC(=O)CCCN2C(=O)c3ccccc3C2=O)c2nc(-c3ccc(C(F)(F)F)cc3)c(Br)o2)c1F` (centres unmarked) [Compound 69, 2-(5-bromo-4-(4-(trifluoromethyl)phenyl)oxazol-2-yl)-2-(3-carbamoyl-2,4-difluorophenoxy)ethyl 4-(1,3-dioxoisoindolin-2-yl)butanoate]: the MIC fell in the range of 0.25 to 1 µg/mL (≈ 0.346 to 1.38 µM). As for `C=CCOC(=O)CCC(=O)OCC(Oc1ccc(F)c(C(N)=O)c1F)c1nc(-c2ccc(C(F)(F)F)cc2)c(Br)o1` (centres unmarked) [Compound 70, allyl (2-(5-bromo-4-(4-(trifluoromethyl)phenyl)oxazol-2-yl)-2-(3-carbamoyl-2,4-difluorophenoxy)ethyl) succinate], the MIC fell in the range of 0.25 to 1 µg/mL. Under `C=CCOP(=O)(OCC=C)OCC(Oc1ccc(F)c(C(N)=O)c1F)c1nc(-c2ccc(C(F)(F)F)cc2)c(Br)o1` (centres unmarked) [Compound 71, diallyl (2-(5-bromo-4-(4-(trifluoromethyl)phenyl)oxazol-2-yl)-2-(3-carbamoyl-2,4-difluorophenoxy)ethyl) phosphate] stands 0.25 to 1 µg/mL; under `CC(=O)OCCC(Oc1ccc(F)c(C(N)=O)c1F)c1nc(-c2ccc(C(F)(F)F)cc2)c(Br)o1` (centres unmarked) [Compound 72, 3-(5-bromo-4-(4-(trifluoromethyl)phenyl)oxazol-2-yl)-3-(3-carbamoyl-2,4-difluorophenoxy)propyl acetate], 1 to 16 µg/mL. Turning to `NC(=O)c1c(F)ccc(OC(CCO)c2nc(-c3ccc(C(F)(F)F)cc3)c(Br)o2)c1F` (centres unmarked) [Compound 73, 3-(1-(5-bromo-4-(4-(trifluoromethyl)phenyl)oxazol-2-yl)-3-hydroxypropoxy)-2,6-difluorobenzamide], the MIC lay in the range of 0.25 to 1 µg/mL (≈ 0.48 to 1.92 µM).

Turning to `NC(=O)c1c(F)ccc(OC(COC(=O)CCC(=O)O)c2nc(-c3ccc(C(F)(F)F)cc3)c(Br)o2)c1F` (centres unmarked) [Compound 74, 4-(2-(5-bromo-4-(4-(trifluoromethyl)phenyl)oxazol-2-yl)-2-(3-carbamoyl-2,4-difluorophenoxy)ethoxy)-4-oxobutanoic acid], the MIC fell in the range of 1 to 16 µg/mL (≈ 1.65 to 26.3 µM).

Take `C=CCOP(=O)(O)OCC(Oc1ccc(F)c(C(N)=O)c1F)c1nc(-c2ccc(C(F)(F)F)cc2)c(Br)o1` (centres unmarked) [Compound 75, allyl (2-(5-bromo-4-(4-(trifluoromethyl)phenyl)oxazol-2-yl)-2-(3-carbamoyl-2,4-difluorophenoxy)ethyl) hydrogen phosphate]: the MIC is over 16 µg/mL. As to `CC(=O)OCC(Oc1ccc(F)c(C(N)=O)c1F)c1nc(-c2ccc(C#N)cc2)c(Br)o1` (centres unmarked) [Compound 76, 2-(5-bromo-4-(4-cyanophenyl)oxazol-2-yl)-2-(3-carbamoyl-2,4-difluorophenoxy)ethyl acetate], the MIC was in the range of 1 to 16 µg/mL. Consider `NC(=O)c1c(F)ccc(OC(CC(=O)O)c2nc(-c3ccc(C(F)(F)F)cc3)c(Br)o2)c1F` (centres unmarked) [Compound 77, 3-(5-bromo-4-(4-(trifluoromethyl)phenyl)oxazol-2-yl)-3-(3-carbamoyl-2,4-difluorophenoxy)propanoic acid], for which the MIC is over 16 µg/mL. As to `CC(=O)OCC(Oc1ccc(F)c(C(N)=O)c1F)c1nc(-c2ccc(C(F)(F)F)cn2)c(Br)o1` (centres unmarked) [Compound 78, 2-(5-bromo-4-(5-(trifluoromethyl)pyridin-2-yl)oxazol-2-yl)-2-(3-carbamoyl-2,4-difluorophenoxy)ethyl acetate], the MIC is over 16 µg/mL. Under `NC(=O)c1c(F)ccc(OC(CO)c2nc(-c3ccc(C(F)(F)F)cn3)c(Br)o2)c1F` (centres unmarked) [Compound 79, 3-(1-(5-bromo-4-(5-(trifluoromethyl)pyridin-2-yl)oxazol-2-yl)-2-hydroxyethoxy)-2,6-difluorobenzamide] stands 1 to 16 µg/mL (≈ 1.97 to 31.5 µM); under `N#Cc1ccc(-c2nc(C(CO)Oc3ccc(F)c(C(N)=O)c3F)oc2Br)cc1` (centres unmarked) [Compound 80, 3-(1-(5-bromo-4-(4-cyanophenyl)oxazol-2-yl)-2-hydroxyethoxy)-2,6-difluorobenzamide], 1 to 16 µg/mL (≈ 2.15 to 34.5 µM). As for `NC(=O)c1c(F)ccc(OC(COP(=O)(O)O)c2nc(-c3ccc(C(F)(F)F)cc3)c(Br)o2)c1F` (centres unmarked) [Compound 81, 2-(5-bromo-4-(4-(trifluoromethyl)phenyl)oxazol-2-yl)-2-(3-carbamoyl-2,4-difluorophenoxy)ethyl dihydrogen phosphate], the MIC was 0.25 to 1 µg/mL. With `CC(=O)OCC(Oc1ccc(F)c(C(N)=O)c1F)c1nc(-c2ccc(-c3noc(C)n3)cc2)c(Br)o1` (centres unmarked) [Compound 82, 2-(5-bromo-4-(4-(5-methyl-1,2,4-oxadiazol-3-yl)phenyl)oxazol-2-yl)-2-(3-carbamoyl-2,4-difluorophenoxy)ethyl acetate], the MIC is 1 to 16 µg/mL. Under `Cc1nc(-c2ccc(-c3nc(C(CO)Oc4ccc(F)c(C(N)=O)c4F)oc3Br)cc2)no1` (centres unmarked) [Compound 83, 3-(1-(5-bromo-4-(4-(5-methyl-1,2,4-oxadiazol-3-yl)phenyl)oxazol-2-yl)-2-hydroxyethoxy)-2,6-difluorobenzamide] stands 1 to 16 µg/mL (≈ 1.92 to 30.7 µM).

The record behind these values is US9511073B2, “Aromatic amides and uses thereof” (TAXIS Pharmaceuticals, Inc., priority 2011, dated 2016).
